Results as given in US8536332B2, “Modulating signal transduction pathways with substituted pyridol [2,3-b] pyrazines” (Aeterna Zentaris GmbH, priority 2007, dated 2013).

melting point [°C] | Structure (SMILES)
195 to 198 | COc1cc(Nc2cnc3ccc(NC(=S)NCCCc4ccccc4)nc3n2)cc(OC)c1OC [Compound 704, 1-(3-Phenyl-propyl)-3-[3-(3,4,5-trimethoxy-phenylamino)-pyrido[2,3-b]pyrazin-6-yl]-thiourea]
243 to 245 | COCCNC(=S)Nc1ccc2ncc(Nc3cc(OC)c(OC)c(OC)c3)nc2n1 [Compound 705, 1-(2-Methoxy-ethyl)-3-[3-(3,4,5-trimethoxy-phenylamino)-pyrido[2,3-b]pyrazin-6-yl]-thiourea]
222 | CCNC(=S)Nc1ccc2ncc(N(C)c3cc(OC)c(OC)c(OC)c3)nc2n1 [Compound 706, 1-Ethyl-3-{3-[methyl-(3,4,5-trimethoxy-phenyl)-amino]-pyrido[2,3-b]pyrazin-6-yl}-thiourea]
248 | COc1cc(Nc2cnc3ccc(NC(=S)NC4CC4)nc3n2)cc(OC)c1OC [Compound 707, 1-Cyclopropyl-3-[3-(3,4,5-trimethoxy-phenylamino)-pyrido[2,3-b]pyrazin-6-yl]-thiourea]
228 | COc1cc(Nc2cnc3ccc(NC(=S)NCc4ccco4)nc3n2)cc(OC)c1OC [Compound 708, 1-Furan-2-ylmethyl-3-[3-(3,4,5-trimethoxy-phenylamino)-pyrido[2,3-b]pyrazin-6-yl]-thiourea]
244 | CCOC(=O)CCNC(=S)Nc1ccc2ncc(Nc3cc(OC)c(OC)c(OC)c3)nc2n1 [Compound 709, 3-{3-[3-(3,4,5-Trimethoxy-phenylamino)-pyrido[2,3-b]pyrazin-6-yl]-thioureido}-propionic acid ethyl ester]
246 | COCCCNC(=S)Nc1ccc2ncc(Nc3cc(OC)c(OC)c(OC)c3)nc2n1 [Compound 710, 1-(3-Methoxy-propyl)-3-[3-(3,4,5-trimethoxy-phenylamino)-pyrido[2,3-b]pyrazin-6-yl]-thiourea]
248 | COc1cc(Nc2cnc3ccc(NC(=S)NC(C)c4ccccc4)nc3n2)cc(OC)c1OC (centres unmarked) [Compound 711, 1-(1-Phenyl-ethyl)-3-[3-(3,4,5-trimethoxy-phenylamino)-pyrido[2,3-b]pyrazin-6-yl]-thiourea]
110 | CCNc1ccc2ncc(Nc3cc(OC)c(OC)c(OC)c3)nc2n1 [Compound 733, N*6*-Ethyl-N*3*- (3,4,5-trimethoxy-phenyl)-pyrido[2,3-b]pyrazine-3,6-diamine]
240 | CCNC(=O)Nc1cnc2ccc(Cl)nc2n1 [Example 1, 1-(6-Chloro-pyrido[2,3-b]pyrazin-3-yl)-3-ethyl-urea]
215 | CCNC(=S)Nc1cnc2ccc(Cl)nc2n1 [Example 2, 1-(6-Chloro-pyrido[2,3-b]pyrazin-3-yl)-3-ethyl-thiourea]
